Source: patent US20220257571A1, “INHIBITOR OF MAP KINASE INTERACTING SERINE/THREONINE KINASE 1 (MNK1) AND MAP KINASE INTERACTING SERINE/THREONINE KINASE 2 (MNK2), CANCER THERAPY AND THERAPEUTIC COMBINATIONS” (FUNPACIÓ HOSPITAL UNIVERSITARI VALL D'HEBRON - INSTITUT DE …, priority 2019, published 2022)
pEC50, pIC50: −log10 of the molar value.

How the values were obtained:
[1] = test system: 22Rv1 cells; assay: apoptosis assay of 22Rv1 cells (Propidium Iodide staining); format: cell-based; details: 22Rv1, 72 h, dual treatment EB1 and Enzalutamide
Description: Dual inhibition of AR and eIF4E phosphorylation induces cell death via apoptosis. […] With this aim, 22Rv1 (A) cells were treated either with vehicle (DMSO), enzalutamide, EB1 or a combination of both with the indicated concentrations for 72 h. Whole cell lysates were then prepared and subjected to western blot analysis with the indicated antibodies. […] Increase in CI-PARP levels indicated apoptotic induction under the combinatory treatment. (B) Apoptosis assays of 22Rv1 cell line after treatment with the indicated concentrations of Enzalutamide, EB1 and the combination of both for 72 h, quantified by analysis of fragmented/condensed chromatin after Propidium Iodide staining. […] Representative Propidium Iodide and Hoechst staining images of 22Rv1 cell line were obtained, although data are not shown. Data are mean of two technical replicates from one experiment ±SEM ***p<0.001 two-tailed Student's test

[2] = test system: eIF4E phosphorylation in melanoma cells (A375M); assay: titration of eIF4E phosphorylation in A375M cells; format: cell-based
Description: (§1) Commercially available MDA-MB-231, MDA-MB-468, MCF7 and A375M, IMR90 (IMR-90 (ATCC® CCL-186TH) cells were grown at 37° C. and 5% CO2 in DMEM medium (Dulbecco's Modified Eagle Medium, 4.5 g/I glucose; 30 mg/I L-Glutamine (Gibco)) supplemented with 10% foetal bovine serum, 100 U/ml penicillin and 100 μg/ml streptomycin.
(§2) Inhibition of eIF4E phosphorylation was quantified by Western Blot. Cells were seeded in 60 mm plates (700,000 cells for 24 h, 500,000 cells for 48 h and 300,000 cells for 72 h).
(§3) After 24 h, the treatments were added. The stocks of compounds were prepared in […] at a concentration 200 times more concentrated than the treatment concentration. Thus, in all cases, the final concentration of DMSO in the medium was 0.5%.
(§4) After incubation, proteins were removed and Western Blot was performed. On ice, the plates were washed with PBS and the cells were lysed with 60 μl lysis buffer (50 mM Tris, 200 mM NaCl, 5 mM EDTA, 0.1% Triton 100×, pH 7.5 supplemented with protease inhibitors (EDTA-free Protease Inhibitor Cocktail Set III, Calbiochem) and phosphatase inhibitors (Phosphatase Inhibitor Cocktail Set II, Calbiochem)). The samples were centrifuged at 15,000 g and the supernatant was quantified by the Bradford method. […] Selectivity against MNK was analysed with ERK, p-ERK, MNK1, p-MNK1, 4EBP1 and p-4EBP1 antibodies. […]

[3] = test system: eIF4E phosphorylation in leukaemia cells (MV4-11); assay: titration of eIF4E phosphorylation in MV4-11 cells; format: cell-based
Description: MV4-11 cells were grown in IMDM medium (Iscove's Modified Dulbecco's Medium, Gibco) supplemented with 10% FBS, 1% L-glutamine, 100 U/ml penicillin and 100 μg/ml streptomycin.
as §2, §3
as §4, with “method. The samples were all diluted to the same concentration with a lysis buffer and loading buffer (Laemmli buffer) and denatured for 5 minutes at 95° C.” for “method.”

[4] = test system: 320-kinase panel; assay: selectivity on a 320-kinase panel; format: biochemical; details: 1 μM
Description: (§5) The kinase activity of the compound was measured by a radiometric kinase assay (^33PanQinase® Activity Assay) carried out by Proqinase (www.proqinase.com).
(§6) The assays were carried out in 96-well FlashPlates™ by PerkinElmer (Boston, Mass., USA) with a reaction volume of 50 μl. The reaction cocktail was pipetted in 4 steps: (1) 20 μl buffer, (2) 5 μl ATP solution (in H2O), (3) 5 μl compound (in 10% DMSO) and (4) 20 μl enzyme/substrate mixture. Lastly, the cocktail contained 70 mM HEPES-NaOH pH 7.5, 3 mM MgCl2, 3 mM MnCl2, 3 μM sodium orthovanadate, 1.2 mM DTT, 50 μg/ml PEG20000, ATP (1 μM for MNK1 and 0.3 μM for MNK2), [γ-^33P]-ATP (approx. […] per well), protein kinase (variable amounts depending on the batch) and substrate (2 μg/50 μl).
Reaction cocktails were incubated at 30° C. for 60 minutes. The reaction was stopped with 50 μl of 2% H3PO4 (v/v), the plates were sucked, they were washed twice with 200 μl of 0.9% NaCl (w/v) and the incorporation of ^33Pi (MicroBeta microplate scintillation counter, Wallac) was determined. […]
(§7) The residual activity (in %) for each well of a particular plate was calculated using the following formula (wherein high control is the kinase activity in absence of an inhibitor and low control is the radioactivity value of the substrate in absence of a kinase).
To study selectivity, residual activity was measured at 1 μM from a 320-kinase panel.

[5] = test system: eIF4E phosphorylation, AR and AR-V7 in 22Rv1 cells; assay: western blot analysis in 22Rv1 cells; format: cell-based; details: for levels of AR, AR-V7 and eIF4E phosphorylation: 22Rv1, 72 h
[6] = test system: eIF4E phosphorylation in MDA-MB-231 cells; assay: inhibition of eIF4E phosphorylation by Western Blot in MDA-MB-231 cells; format: cell-based, human
Description: as §1, §2, §3
After incubation, proteins were removed and Western Blot was performed. On ice, the plates were washed with PBS and the cells were lysed with 60 μl lysis buffer (50 mM Tris, 200 mM NaCl, 5 mM EDTA, 0.1% Triton 100×, pH 7.5 supplemented with protease inhibitors (EDTA-free Protease Inhibitor Cocktail Set III, Calbiochem) and phosphatase inhibitors (Phosphatase Inhibitor Cocktail Set II, Calbiochem)). The samples were centrifuged at 15,000 g and the supernatant was quantified by the Bradford method. The samples were all diluted to the same concentration with a lysis buffer and loading buffer (Laemmli buffer) and denatured for 5 minutes at 95° C. The proteins were separated on a 12% […] gel (20 μg were loaded per well) and transferred to a PDVF (Polyvinylidene fluoride) membrane. β-Actin antibodies, abbreviated as “actin” in the figures (Calbiochem), eIF4E (anti-rabbit, Cell signalling), and phosphorylated-eIF4E (S209) (anti-rabbit, Cell signalling) in 5% BSA in TBST were used to study the activity of the compounds. Selectivity against MNK was analysed with ERK, p-ERK, MNK1, p-MNK1, 4EBP1 and p-4EBP1 antibodies.

[7] = target: T1, MNK2 (Homo sapiens, UniProt Q9HBH9); assay: radiometric kinase assay (33PanQinase Activity Assay), MNK2; format: biochemical; details: after treatment with 10 μM compound; ATP 0.3 μM; read-out: residual activity of MNK2
T1 construct: purchased Proqinase
T1 sequence (Q9HBH9 whole entry): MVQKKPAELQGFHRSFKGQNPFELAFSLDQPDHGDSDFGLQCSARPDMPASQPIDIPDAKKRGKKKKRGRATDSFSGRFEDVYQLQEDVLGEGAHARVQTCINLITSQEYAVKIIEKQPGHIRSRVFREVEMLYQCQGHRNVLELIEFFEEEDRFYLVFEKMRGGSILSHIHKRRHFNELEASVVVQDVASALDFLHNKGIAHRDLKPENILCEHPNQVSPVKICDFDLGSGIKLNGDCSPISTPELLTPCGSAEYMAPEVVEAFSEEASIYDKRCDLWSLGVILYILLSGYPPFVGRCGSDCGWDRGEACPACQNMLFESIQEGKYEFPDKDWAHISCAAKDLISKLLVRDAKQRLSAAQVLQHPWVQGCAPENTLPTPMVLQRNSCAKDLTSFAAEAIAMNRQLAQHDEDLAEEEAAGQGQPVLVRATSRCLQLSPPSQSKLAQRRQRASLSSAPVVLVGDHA
Description: The assays were carried out in 96-well FlashPlates™ by PerkinElmer (Boston, Mass., USA) with a reaction volume of 50 μl. The reaction cocktail was pipetted in 4 steps: (1) 20 μl buffer, (2) 5 μl ATP solution (in H2O), (3) 5 μl compound (in 10% DMSO) and (4) 20 μl enzyme/substrate mixture. […]
To screen compounds, the residual activity of both kinases was analysed after treatment with 10 μM of the compounds.

[8] = test system: MDA-MB-231 cells; assay: FACS analysis of cell cycle and subG1, MDA-MB-231; format: cell-based; details: MDA-MB-231, higher concentrations
Description: To determine how cell growth is affected at higher concentrations of EB1, a FACS analysis was performed to monitor the state of the cell cycle and the percentage of cells in subG1 as an indicator of cell death. […] Equivalent results have been described for the MNK1/2 inhibitor BAY 11433296 (FIG. 4).

[9] = test system: MNK1/2; assay: radiometric kinase assay (33PanQinase Activity Assay), IC50; format: biochemical
Description: as §5, §6
(§8) Reaction cocktails were incubated at 30° C. for 60 minutes. The reaction was stopped with 50 μl of 2% H3PO4 (v/v), the plates were sucked, they were washed twice with 200 μl of 0.9% NaCl (w/v) and the incorporation of ^33Pi (MicroBeta microplate scintillation counter, Wallac) was determined. All assays were performed with a Beckman Coulter/SAGIAN™ system.
as §7

[10] = target: T2, MNK1/2; assay: as above; format: biochemical; details: MNK1/2, isoform not stated; read-out: enzymatic IC50
T2 construct: rows headed: enzymatic IC50
Description: as §5, §6, §8, §7

Nc1n[nH]c2nc(-c3ccccc3)cc(-c3ccccc3)c12 [EB1, 4,6-diphenyl-1H-pyrazolo[3,4-b]pyridin-3-amine]
apoptotic cell population [1]: Remarcable increase in apoptotic cell population | activity as MNK inhibitor (eIF4E phosphorylation) [2]: active | activity as MNK inhibitor (eIF4E phosphorylation) [3]: active | number of other kinases affected in an equivalent manner [4]: 16 | inhibition of eIF4E phosphorylation ([5]; 22Rv1, 24 h EB1 treatment): Dose dependent inhibition | levels of AR, AR-V7 and eIF4E phosphorylation ([5]; EB1 alone): reduction of AR, its splice variant AR-V7 and eIF4E phosphorylation | levels of AR, AR-V7 and eIF4E phosphorylation ([5]; combination of EB1 and enzalutamide): more pronounced | pEC50 ([6]; Homo sapiens, MDA-MB-231 triple-negative breast cancer cells, read-out: in vitro EC50, inhibition of eIF4E phosphorylation): ~5.82 | concentration at which eIF4E phosphorylation is significantly reduced ([6]; MDA-MB-231): greater than 2.5 μM | concentration giving almost complete inhibition of eIF4E phosphorylation ([6]; MDA-MB-231): ≥ 2.5 µM | duration of the effect on eIF4E phosphorylation ([6]; MDA-MB-231): at least 72 h | reversal of the increased eIF4E phosphorylation caused by doxorubicin ([6]; MDA-MB-231, 5 μM EB1 with doxorubicin): can be reversed | effect on components of the signalling pathway (p-MNK, ERK, 4E-BP1) ([6]; MDA-MB-231, Western Blot): does not affect any of the components of the signalling pathway | remaining activity at 10 µM [7]: 52% | cells in the G1 phase of the cell cycle [8]: increase of cells could be observed in the G1 phase | mode of MNK1/2 inhibition [9]: non-ATP competitive | pIC50 [10]: 6.15
